The target of assay [1] is Epidermal growth factor receptor (Homo sapiens, UniProt P00533). The experiment in a line: DRUGMATRIX: Protein Tyrosine Kinase, EGF Receptor enzyme inhibition (substrate: Poly(Glu:Tyr)). Format: cell-based, Insect cells. To be noted: insect cells; Not Active = under 50% inhibition at 10 µM.
In another assay the target is T1, Neutrophil elastase (Homo sapiens, UniProt P08246).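 Also: inhibition of neutrophil elastase enzyme activity, measured with a p-nitroanilide-linked peptide substrate; in other assays of this panel Not Active means under 50% inhibition at 10 µM.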
T1 sequence (P08246 whole entry): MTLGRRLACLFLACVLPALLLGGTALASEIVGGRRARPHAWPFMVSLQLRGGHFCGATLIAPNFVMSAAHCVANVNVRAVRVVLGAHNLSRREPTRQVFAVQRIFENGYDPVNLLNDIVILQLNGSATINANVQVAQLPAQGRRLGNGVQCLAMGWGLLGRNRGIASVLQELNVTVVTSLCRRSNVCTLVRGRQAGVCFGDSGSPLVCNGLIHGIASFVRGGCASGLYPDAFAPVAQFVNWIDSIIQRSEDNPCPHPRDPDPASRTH
Format: tissue-based.

In the next assay the target is Acetylcholinesterase (Homo sapiens, UniProt P22303). The experiment in a line: DRUGMATRIX: Acetylcholinesterase enzyme inhibition (substrate: acetylthiocholine). The following applies: Not Active = under 50% inhibition at 10 µM. The assay is classed as cell-based, HEK293.
Assay [2] concerns the target T2, Cysteinyl leukotriene receptor 1 (Homo sapiens, UniProt Q9Y271). Also: in other assays of this panel Not Active means under 50% inhibition at 10 µM.
T2 sequence (Q9Y271 whole entry): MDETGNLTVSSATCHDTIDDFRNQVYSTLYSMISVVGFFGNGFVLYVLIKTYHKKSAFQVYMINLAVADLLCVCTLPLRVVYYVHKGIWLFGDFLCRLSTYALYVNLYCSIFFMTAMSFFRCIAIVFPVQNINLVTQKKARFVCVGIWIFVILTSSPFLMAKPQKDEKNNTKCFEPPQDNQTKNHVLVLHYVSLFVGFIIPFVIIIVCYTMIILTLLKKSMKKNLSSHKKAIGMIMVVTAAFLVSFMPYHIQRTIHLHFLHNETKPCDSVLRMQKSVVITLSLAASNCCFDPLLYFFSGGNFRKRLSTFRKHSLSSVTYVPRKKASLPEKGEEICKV
Format: cell membranes, Membrane. To be noted: cho-k1.

Assay [3] is described as follows: DRUGMATRIX: Nicotinic Acetylcholine radioligand binding (ligand: [125I] Epibatidine). To be noted: imr-32; Not Active = under 50% inhibition at 10 µM. Format: cell membranes, Membrane.
Assay [4] deals with Vascular endothelial growth factor receptor 1 (Homo sapiens, UniProt P17948). The experiment in a line: biochemical. Format: cell-based, HUVEC. The following applies: huvec.
A further assay addresses Histamine H2 receptor (Homo sapiens, UniProt P25021). The assay is classed as cell membranes, CHO-K1, Membrane. The following applies: cho-k1.

Each structure is given as a SMILES string.

Sequence of Acetylcholinesterase (P22303 whole entry): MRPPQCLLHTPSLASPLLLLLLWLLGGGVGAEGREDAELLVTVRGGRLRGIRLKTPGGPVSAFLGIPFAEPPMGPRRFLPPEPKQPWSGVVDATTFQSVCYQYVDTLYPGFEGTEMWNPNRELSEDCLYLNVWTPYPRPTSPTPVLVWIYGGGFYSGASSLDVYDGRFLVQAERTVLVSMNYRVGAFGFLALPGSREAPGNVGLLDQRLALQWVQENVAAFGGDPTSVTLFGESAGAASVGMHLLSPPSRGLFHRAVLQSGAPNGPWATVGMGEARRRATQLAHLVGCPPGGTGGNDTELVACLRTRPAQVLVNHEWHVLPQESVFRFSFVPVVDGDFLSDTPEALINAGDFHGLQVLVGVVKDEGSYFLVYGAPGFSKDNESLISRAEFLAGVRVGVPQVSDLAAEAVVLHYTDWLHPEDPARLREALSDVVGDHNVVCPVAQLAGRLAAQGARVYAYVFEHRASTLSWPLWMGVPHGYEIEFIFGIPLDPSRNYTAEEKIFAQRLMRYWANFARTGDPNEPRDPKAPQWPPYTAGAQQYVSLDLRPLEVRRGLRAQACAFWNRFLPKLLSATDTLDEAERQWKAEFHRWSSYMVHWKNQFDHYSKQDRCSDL
Sequence of Epidermal growth factor receptor (P00533 whole entry): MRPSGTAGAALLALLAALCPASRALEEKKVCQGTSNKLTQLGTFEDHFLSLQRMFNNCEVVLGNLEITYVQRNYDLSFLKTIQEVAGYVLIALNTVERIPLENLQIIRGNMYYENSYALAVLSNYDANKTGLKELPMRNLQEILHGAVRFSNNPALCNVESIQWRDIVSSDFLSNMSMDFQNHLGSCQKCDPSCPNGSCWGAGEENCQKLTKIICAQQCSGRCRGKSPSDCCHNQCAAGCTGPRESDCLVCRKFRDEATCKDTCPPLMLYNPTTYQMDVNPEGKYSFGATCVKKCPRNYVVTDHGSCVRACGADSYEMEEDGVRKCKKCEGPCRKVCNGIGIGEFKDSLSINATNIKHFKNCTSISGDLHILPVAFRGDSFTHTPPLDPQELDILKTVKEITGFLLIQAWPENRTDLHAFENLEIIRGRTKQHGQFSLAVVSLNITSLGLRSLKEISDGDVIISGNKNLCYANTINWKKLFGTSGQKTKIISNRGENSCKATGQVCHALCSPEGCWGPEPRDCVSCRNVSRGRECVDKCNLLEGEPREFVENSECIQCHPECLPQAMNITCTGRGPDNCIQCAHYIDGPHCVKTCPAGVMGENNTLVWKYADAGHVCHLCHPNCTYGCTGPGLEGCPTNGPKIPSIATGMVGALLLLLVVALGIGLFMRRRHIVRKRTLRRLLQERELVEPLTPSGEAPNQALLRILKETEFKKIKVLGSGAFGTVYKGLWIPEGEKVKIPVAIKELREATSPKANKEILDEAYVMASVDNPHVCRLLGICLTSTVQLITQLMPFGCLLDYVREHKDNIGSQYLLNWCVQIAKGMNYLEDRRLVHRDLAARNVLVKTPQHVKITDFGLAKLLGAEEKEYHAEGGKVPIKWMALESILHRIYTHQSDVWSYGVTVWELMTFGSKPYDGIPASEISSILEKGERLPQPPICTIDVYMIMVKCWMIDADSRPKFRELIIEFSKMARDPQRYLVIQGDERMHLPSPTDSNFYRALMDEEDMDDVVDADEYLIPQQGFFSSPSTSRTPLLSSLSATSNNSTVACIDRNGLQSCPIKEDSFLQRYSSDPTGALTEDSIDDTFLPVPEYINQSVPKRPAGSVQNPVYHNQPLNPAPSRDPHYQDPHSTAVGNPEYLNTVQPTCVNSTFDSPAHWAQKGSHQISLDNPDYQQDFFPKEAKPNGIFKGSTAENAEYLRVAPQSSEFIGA
Sequence of Vascular endothelial growth factor receptor 1 (P17948 whole entry): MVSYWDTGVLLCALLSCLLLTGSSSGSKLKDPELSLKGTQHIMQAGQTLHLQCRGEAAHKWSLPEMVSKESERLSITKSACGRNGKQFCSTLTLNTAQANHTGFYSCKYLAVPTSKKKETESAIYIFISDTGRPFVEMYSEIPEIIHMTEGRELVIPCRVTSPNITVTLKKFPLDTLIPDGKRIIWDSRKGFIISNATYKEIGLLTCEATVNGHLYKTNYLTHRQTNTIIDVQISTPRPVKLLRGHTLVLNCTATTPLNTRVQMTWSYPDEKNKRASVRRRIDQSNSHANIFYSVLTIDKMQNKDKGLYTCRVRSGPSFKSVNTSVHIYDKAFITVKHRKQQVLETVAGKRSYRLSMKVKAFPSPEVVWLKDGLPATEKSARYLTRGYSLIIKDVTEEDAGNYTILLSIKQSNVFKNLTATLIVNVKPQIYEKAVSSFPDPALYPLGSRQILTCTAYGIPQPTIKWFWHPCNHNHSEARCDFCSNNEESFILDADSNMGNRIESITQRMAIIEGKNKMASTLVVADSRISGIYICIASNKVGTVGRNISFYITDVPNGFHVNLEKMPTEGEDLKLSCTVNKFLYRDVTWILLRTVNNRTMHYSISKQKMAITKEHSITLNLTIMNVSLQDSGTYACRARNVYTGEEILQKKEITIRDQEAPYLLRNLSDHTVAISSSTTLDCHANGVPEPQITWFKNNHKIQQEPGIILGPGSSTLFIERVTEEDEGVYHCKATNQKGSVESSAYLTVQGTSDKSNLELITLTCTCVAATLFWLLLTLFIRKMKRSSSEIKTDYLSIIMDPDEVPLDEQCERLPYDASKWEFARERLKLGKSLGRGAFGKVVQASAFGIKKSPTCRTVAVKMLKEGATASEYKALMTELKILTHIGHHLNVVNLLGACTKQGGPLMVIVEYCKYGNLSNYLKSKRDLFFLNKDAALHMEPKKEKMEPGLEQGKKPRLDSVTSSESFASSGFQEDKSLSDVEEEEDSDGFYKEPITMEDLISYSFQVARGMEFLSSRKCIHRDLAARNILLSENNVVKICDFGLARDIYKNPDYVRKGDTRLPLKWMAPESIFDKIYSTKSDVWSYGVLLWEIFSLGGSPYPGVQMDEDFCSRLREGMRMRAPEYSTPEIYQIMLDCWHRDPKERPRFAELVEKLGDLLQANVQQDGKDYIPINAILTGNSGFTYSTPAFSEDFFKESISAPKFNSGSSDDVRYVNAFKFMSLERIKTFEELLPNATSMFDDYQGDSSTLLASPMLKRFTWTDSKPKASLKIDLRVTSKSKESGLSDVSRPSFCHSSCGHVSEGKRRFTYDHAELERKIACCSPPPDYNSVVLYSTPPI
Sequence of Histamine H2 receptor (P25021 whole entry): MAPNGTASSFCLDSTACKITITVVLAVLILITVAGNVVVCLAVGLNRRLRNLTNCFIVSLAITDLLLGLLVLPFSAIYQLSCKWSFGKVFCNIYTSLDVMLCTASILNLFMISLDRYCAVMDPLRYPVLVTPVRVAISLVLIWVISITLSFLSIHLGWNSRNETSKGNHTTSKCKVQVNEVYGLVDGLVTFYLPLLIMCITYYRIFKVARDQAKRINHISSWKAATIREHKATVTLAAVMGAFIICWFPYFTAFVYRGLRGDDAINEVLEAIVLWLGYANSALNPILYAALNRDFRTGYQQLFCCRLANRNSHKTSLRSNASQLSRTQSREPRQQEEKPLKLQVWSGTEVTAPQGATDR

Regarding `CC(=O)O[C@]1(C(C)=O)CC[C@H]2[C@@H]3C=C(C)C4=CC(=O)CC[C@]4(C)[C@H]3CC[C@@]21C` [MEGESTROL ACETATE], the IC50 result (in assay [1]; on Neutrophil elastase; on Acetylcholinesterase (hek293); in assay [2]; in assay [3]; in assay [4]) was “Not Active” throughout. Further, the IC50 (as a rule, the concentration at which inhibition is half-maximal) against Histamine H2 receptor is “Not Active”. The Ki result in assay [3] is given as “Not Active”.
Regarding `COc1ccccc1OCC(O)COC(N)=O` (stereo not given) [METHOCARBAMOL], the IC50 result (in assay [1]; against Neutrophil elastase; against Acetylcholinesterase (hek293); in assay [2]; in assay [3]; in assay [4]) was “Not Active” throughout. Further, the IC50 result at Histamine H2 receptor is “Not Active”. The Ki result in assay [3] is listed as “Not Active”.
Take `CN(Cc1cnc2nc(N)nc(N)c2n1)c1ccc(C(=O)N[C@@H](CCC(=O)O)C(=O)O)cc1` [METHOTREXATE]: the IC50 entry (in assay [1]; on Neutrophil elastase; on Acetylcholinesterase (hek293); in assay [2]; in assay [3]; in assay [4]) was “Not Active” each time. Further, at Histamine H2 receptor, the IC50 result is on record as “Not Active”. Also, the Ki entry in assay [3] is on record as “Not Active”.
Take `COC(=O)c1ccccc1O` [METHYL SALICYLATE]: the IC50 entry (in assay [1]; on Neutrophil elastase; against Acetylcholinesterase (hek293); in assay [2]; in assay [3]; in assay [4]) was “Not Active” throughout. For the same compound, the IC50 entry against Histamine H2 receptor was “Not Active”. Besides, the Ki entry in assay [3] was “Not Active”.
Take `COc1ccc2cc(CCC(C)=O)ccc2c1` [NABUMETONE]: the IC50 entry (in assay [1]; against Neutrophil elastase; at Acetylcholinesterase (hek293); in assay [2]; in assay [3]; in assay [4]) was “Not Active” in each case. The IC50 result against Histamine H2 receptor is given as “Not Active”. In addition, the Ki entry in assay [3] was “Not Active”.
On to `O=C(O)c1cccnc1` [NIACIN], for which the IC50 result (in assay [1]; against Neutrophil elastase; against Acetylcholinesterase (hek293); in assay [2]; in assay [3]; in assay [4]) was “Not Active” each time. The IC50 entry against Histamine H2 receptor is listed as “Not Active”. In assay [3], the Ki entry is reported as “Not Active”.
Take `CNC(=C[N+](=O)[O-])NCCSCc1csc(CN(C)C)n1` [NIZATIDINE]: the IC50 entry is “Not Active” in assay [1]; “Not Active” at Neutrophil elastase; 5.61 µM at Acetylcholinesterase (read-out: IC50); “Not Active” in assay [2]; “Not Active” in assay [3]; “Not Active” in assay [4]. Further, the IC50 result against Histamine H2 receptor was “Not Active”. Further, the Ki entry in assay [3] is on record as “Not Active”.
`C[C@]12C/C(=C/O)C(=O)C[C@@H]1CC[C@@H]1[C@@H]2CC[C@@]2(C)[C@H]1CC[C@]2(C)O` [OXYMETHOLONE]: the IC50 entry (in assay [1]; against Neutrophil elastase; against Acetylcholinesterase (hek293); in assay [2]; in assay [3]; in assay [4]) was “Not Active” each time. Besides, the IC50 entry against Histamine H2 receptor was “Not Active”. In assay [3], the Ki entry is “Not Active”.
Regarding `CC(C)(CO)C(O)C(=O)NCCCO` (stereo not given) [PANTHENOL], the IC50 entry (in assay [1]; against Neutrophil elastase; against Acetylcholinesterase (hek293); in assay [2]; in assay [3]; in assay [4]) was “Not Active” each time. On Histamine H2 receptor, the IC50 entry is “Not Active”. Besides, the Ki result in assay [3] is “Not Active”.
Take `COc1ccc(Cc2nccc3cc(OC)c(OC)cc23)cc1OC` [PAPAVERINE]: the IC50 entry (in assay [1]; against Neutrophil elastase; at Acetylcholinesterase (hek293); in assay [3]; in assay [4]; at Histamine H2 receptor) was “Not Active” each time. For the same compound, the Ki entry in assay [2] and in assay [3] was “Not Active” each time.

These data come from ChEMBL document CHEMBL1909046, “DrugMatrix in vitro pharmacology data”.
